Experimental data from patent US20240124441A1, “POLYMORPH OF LATREPIRDINE DIHYDROCHLORIDE” (BIGESPAS LTD., priority 2021, published 2024).
Read-outs that look alike come from different tables or passages of the source. One block for each compound: values may come before it.

Legend:
[1] = Bioavailability study: Latrepirdine concentration in blood serum after oro-gastric gavage
Protocol: (§1) Those crystalline polymorphs and DMB-I were used in an animal study to evaluate absorption of crystalline forms of Latrepirdine from gastrointestinal tract into blood serum and brain tissues of the animals. Male Wistar rats were used in animal study. Rats were randomly divided into 5 groups, each group containing 28 animals, for administration of respective polymorphic forms of Latrepirdine. Respective polymorphic form of Latrepirdine was administered by oro-gastric gavage as a suspension in corn oil at a dose of 10 mg/kg. Animals were euthanized at 15, 30, 60, and 120 min after administration of Latrepirdine (7 animals at each timepoint) followed by collection of blood serum and brain tissue samples that were analyzed for Latrepirdine content by LCMS. Analyses were performed using Prominence LCMS-850 equipped with Kinetex C18 Phenomenex column. Statistical bi-factorial ANOVA analysis of analytical data was performed using Statistica-7.1. software.

[2] = Bioavailability study: Latrepirdine concentration in brain tissue after oro-gastric gavage; conditions: for Concentration of Latrepirdine in brain tissue: 10 mg/kg oro-gastric gavage, suspension in corn oil, rat, 10 mg/kg
Protocol: as §1

[3] = rat, in vivo, po
Protocol: as §1

[4] = rat, in vivo, po; remark: listed apart in the source
Protocol: as §1

Concentration of Latrepirdine in blood serum ([1]; 15 min after administration, 10 mg/kg oro-gastric gavage, suspension in corn oil, rat, listed as C, 10 mg/kg): 7.4 ng/mL | Concentration of Latrepirdine in blood serum ([1]; 30 min after administration, 10 mg/kg oro-gastric gavage, suspension in corn oil, rat, listed as C, 10 mg/kg): 6.8 ng/mL | Concentration of Latrepirdine in blood serum ([1]; 60 min after administration, 10 mg/kg oro-gastric gavage, suspension in corn oil, rat, listed as C, 10 mg/kg): 6.7 ng/mL | Concentration of Latrepirdine in blood serum ([1]; 120 min after administration, 10 mg/kg oro-gastric gavage, suspension in corn oil, rat, listed as C, 10 mg/kg): 7.0 ng/mL | Concentration of Latrepirdine in brain tissue ([2]; 15 min after administration, listed as C): 25.1 ng/mL | Concentration of Latrepirdine in brain tissue ([2]; 30 min after administration, listed as C): 15.0 ng/mL | Concentration of Latrepirdine in brain tissue ([2]; 60 min after administration, listed as C): 32.1 ng/mL | Concentration of Latrepirdine in brain tissue ([2]; 120 min after administration, listed as C): 39.1 ng/mL
Compound: Cc1ccc2c(c1)c1c(n2CCc2ccc(C)nc2)CCN(C)C1 [Polymorph C, 2,8-dimethyl-5-[2-(6-methylpyridin-3-yl)ethyl]-3,4-dihydro-1H-pyrido[4,3-b]indole]

Concentration of Latrepirdine in blood serum ([1]; 15 min after administration, 10 mg/kg oro-gastric gavage, suspension in corn oil, rat, listed as F, 10 mg/kg): 4.8 ng/mL | Concentration of Latrepirdine in blood serum ([1]; 30 min after administration, 10 mg/kg oro-gastric gavage, suspension in corn oil, rat, listed as F, 10 mg/kg): 6.3 ng/mL | Concentration of Latrepirdine in blood serum ([1]; 60 min after administration, 10 mg/kg oro-gastric gavage, suspension in corn oil, rat, listed as F, 10 mg/kg): 9.4 ng/mL | Concentration of Latrepirdine in blood serum ([1]; 120 min after administration, 10 mg/kg oro-gastric gavage, suspension in corn oil, rat, listed as F, 10 mg/kg): 3.6 ng/mL | Concentration of Latrepirdine in brain tissue ([2]; 15 min after administration, listed as F): 20.2 ng/mL | Concentration of Latrepirdine in brain tissue ([2]; 30 min after administration, listed as F): 32.2 ng/mL | Concentration of Latrepirdine in brain tissue ([2]; 60 min after administration, listed as F): 68.5 ng/mL | Concentration of Latrepirdine in brain tissue ([2]; 120 min after administration, listed as F): 45.1 ng/mL
Compound: Cc1ccc2c(c1)c1c(n2CCc2ccc(C)nc2)CCN(C)C1 [Polymorph F, 2,8-dimethyl-5-[2-(6-methylpyridin-3-yl)ethyl]-3,4-dihydro-1H-pyrido[4,3-b]indole]

Median values of Cmax compared among the five tested polymorphic forms [3]: highest value | Median values of Cmax compared among the five tested polymorphic forms [4]: highest value | Concentration of Latrepirdine in blood serum ([1]; 15 min after administration, 10 mg/kg oro-gastric gavage, suspension in corn oil, rat, listed as DMB-I, 10 mg/kg): 12.8 ng/mL | Concentration of Latrepirdine in blood serum ([1]; 30 min after administration, 10 mg/kg oro-gastric gavage, suspension in corn oil, rat, listed as DMB-I, 10 mg/kg): 10.0 ng/mL | Concentration of Latrepirdine in blood serum ([1]; 60 min after administration, 10 mg/kg oro-gastric gavage, suspension in corn oil, rat, listed as DMB-I, 10 mg/kg): 9.7 ng/mL | Concentration of Latrepirdine in blood serum ([1]; 120 min after administration, 10 mg/kg oro-gastric gavage, suspension in corn oil, rat, listed as DMB-I, 10 mg/kg): 10.4 ng/mL | Cmax exceeds the Cmax of other polymorphic forms by ([1]; blood plasma, intragastric administration, versus the other four polymorphic forms): 12-240% | Tmax ([1]; male, Wistar, rat, plasma, po, 10 mg/kg): 15 min | Concentration of Latrepirdine in brain tissue ([2]; 15 min after administration, listed as DMB-I): 45.1 ng/mL | Concentration of Latrepirdine in brain tissue ([2]; 30 min after administration, listed as DMB-I): 26.8 ng/mL | Concentration of Latrepirdine in brain tissue ([2]; 60 min after administration, listed as DMB-I): 106.0 ng/mL | Concentration of Latrepirdine in brain tissue ([2]; 120 min after administration, listed as DMB-I): 49.8 ng/mL | Cmax exceeds the Cmax of other polymorphic forms by ([2]; brain tissue, intragastric administration, versus the other four polymorphic forms): 32-260%
Compound: Cc1ccc2c(c1)c1c(n2CCc2ccc(C)nc2)CCN(C)C1 [Polymorph DMB-I, 2,8-dimethyl-5-[2-(6-methylpyridin-3-yl)ethyl]-3,4-dihydro-1H-pyrido[4,3-b]indole]

Continued, compound first:

Compound: Cc1ccc2c(c1)c1c(n2CCc2ccc(C)nc2)CCN(C)C1 [Polymorph A, 2,8-dimethyl-5-[2-(6-methylpyridin-3-yl)ethyl]-3,4-dihydro-1H-pyrido[4,3-b]indole]
Concentration of Latrepirdine in blood serum ([1]; 15 min after administration, 10 mg/kg oro-gastric gavage, suspension in corn oil, rat, listed as A, 10 mg/kg): 2.0 ng/mL | Concentration of Latrepirdine in blood serum ([1]; 60 min after administration, 10 mg/kg oro-gastric gavage, suspension in corn oil, rat, listed as A, 10 mg/kg): 3.9 ng/mL | Concentration of Latrepirdine in blood serum ([1]; 120 min after administration, 10 mg/kg oro-gastric gavage, suspension in corn oil, rat, listed as A, 10 mg/kg): 2.0 ng/mL | concentration at 30 min ([1]; male, Wistar, rat, serum, oral, 10 mg/kg, Concentration of Latrepirdine in blood serum, 30 min after administration, 10 mg/kg oro-gastric gavage, suspension in corn oil, rat): 7 ng/mL | Concentration of Latrepirdine in brain tissue ([2]; 15 min after administration, listed as A): 22.4 ng/mL | Concentration of Latrepirdine in brain tissue ([2]; 30 min after administration, listed as A): 5.6 ng/mL | Concentration of Latrepirdine in brain tissue ([2]; 60 min after administration, listed as A): 76.8 ng/mL | Concentration of Latrepirdine in brain tissue ([2]; 120 min after administration, listed as A): 24.4 ng/mL

Compound: Cc1ccc2c(c1)c1c(n2CCc2ccc(C)nc2)CCN(C)C1 [Polymorph B, 2,8-dimethyl-5-[2-(6-methylpyridin-3-yl)ethyl]-3,4-dihydro-1H-pyrido[4,3-b]indole]
Concentration of Latrepirdine in blood serum ([1]; 15 min after administration, 10 mg/kg oro-gastric gavage, suspension in corn oil, rat, listed as B, 10 mg/kg): 5.9 ng/mL | Concentration of Latrepirdine in blood serum ([1]; 30 min after administration, 10 mg/kg oro-gastric gavage, suspension in corn oil, rat, listed as B, 10 mg/kg): 5.6 ng/mL | Concentration of Latrepirdine in blood serum ([1]; 60 min after administration, 10 mg/kg oro-gastric gavage, suspension in corn oil, rat, listed as B, 10 mg/kg): 7.4 ng/mL | Concentration of Latrepirdine in blood serum ([1]; 120 min after administration, 10 mg/kg oro-gastric gavage, suspension in corn oil, rat, listed as B, 10 mg/kg): 1.0 ng/mL | Concentration of Latrepirdine in brain tissue ([2]; 15 min after administration, listed as B): 23.5 ng/mL | Concentration of Latrepirdine in brain tissue ([2]; 30 min after administration, listed as B): 34.2 ng/mL | Concentration of Latrepirdine in brain tissue ([2]; 60 min after administration, listed as B): 54.4 ng/mL | Concentration of Latrepirdine in brain tissue ([2]; 120 min after administration, listed as B): 29.7 ng/mL
